Measurements taken from PubChem BioAssay (NCI).
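How tested: cells in 96-well plates exposed to compound for 48 hours at five concentrations. TGI is the concentration that stops growth completely.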

Key:
Assay in all cases: inhibition of tumour cell growth, NCI panel, 48 h
UACC-62 melanoma = test system: UACC-62 melanoma
NCI-H226 lung = test system: NCI-H226 lung
OVCAR-8 ovarian = test system: OVCAR-8 ovarian
M14 melanoma = test system: M14 melanoma
NCI-H460 lung = test system: NCI-H460 lung
NCI/ADR-RES ovarian = test system: NCI/ADR-RES ovarian
COLO 205 colon = test system: COLO 205 colon
OVCAR-5 ovarian = test system: OVCAR-5 ovarian
SW-620 colon = test system: SW-620 colon
SF-268 CNS = test system: SF-268 CNS
U251 CNS = test system: U251 CNS
SNB-19 CNS = test system: SNB-19 CNS
DU-145 prostate = test system: DU-145 prostate
MALME-3M melanoma = test system: MALME-3M melanoma
A498 renal = test system: A498 renal
EKVX NSCLC = test system: EKVX NSCLC
HCC-2998 colon = test system: HCC-2998 colon
MOLT-4 leukemia = test system: MOLT-4 leukemia
HL-60(TB) leukemia = test system: HL-60(TB) leukemia
NCI-H23 lung = test system: NCI-H23 lung
SR leukemia = test system: SR leukemia
HS 578T breast = test system: HS 578T breast
CCRF-CEM leukemia = test system: CCRF-CEM leukemia
SN12C renal = test system: SN12C renal
HOP-92 NSCLC = test system: HOP-92 NSCLC
TK-10 renal = test system: TK-10 renal
MCF7 breast = test system: MCF7 breast
SK-MEL-5 melanoma = test system: SK-MEL-5 melanoma
SF-539 CNS = test system: SF-539 CNS
CAKI-1 renal = test system: CAKI-1 renal
KM12 colon = test system: KM12 colon
786-0 renal = test system: 786-0 renal
HT29 colon = test system: HT29 colon
ACHN renal = test system: ACHN renal
MDA-N = test system: MDA-N
LOX IMVI melanoma = test system: LOX IMVI melanoma
SF-295 CNS = test system: SF-295 CNS
OVCAR-3 ovarian = test system: OVCAR-3 ovarian
RPMI-8226 leukemia = test system: RPMI-8226 leukemia
HCT-15 colon = test system: HCT-15 colon
PC-3 prostate = test system: PC-3 prostate
A549 NSCLC = test system: A549 NSCLC
HCT-116 colon = test system: HCT-116 colon
MDA-MB-231 breast = test system: MDA-MB-231 breast
NCI-H522 lung = test system: NCI-H522 lung
SK-OV-3 ovarian = test system: SK-OV-3 ovarian
SK-MEL-28 melanoma = test system: SK-MEL-28 melanoma
HOP-62 NSCLC = test system: HOP-62 NSCLC
K-562 leukemia = test system: K-562 leukemia
BT-549 breast = test system: BT-549 breast
MDA-MB-435 = test system: MDA-MB-435
IGROV1 ovarian = test system: IGROV1 ovarian
T-47D breast = test system: T-47D breast
UACC-257 melanoma = test system: UACC-257 melanoma
RXF 393 renal = test system: RXF 393 renal
SK-MEL-2 melanoma = test system: SK-MEL-2 melanoma
SNB-75 CNS = test system: SNB-75 CNS
OVCAR-4 ovarian = test system: OVCAR-4 ovarian

COc1cc2oc3ccccc3c(=O)c2cc1CSc1ccccc1N
TGI (UACC-62 melanoma): > 66.9 µM
TGI (NCI-H226 lung): > 100 µM
TGI (OVCAR-8 ovarian): > 100 µM
TGI (M14 melanoma): > 100 µM
TGI (NCI-H460 lung): > 100 µM
TGI (NCI/ADR-RES ovarian): > 70.9 µM
TGI (COLO 205 colon): > 95.6 µM
TGI (OVCAR-5 ovarian): > 100 µM
TGI (SW-620 colon): > 100 µM
TGI (SF-268 CNS): > 100 µM
TGI (U251 CNS): > 100 µM
TGI (SNB-19 CNS): > 100 µM
TGI (DU-145 prostate): > 84.9 µM
TGI (MALME-3M melanoma): > 79.5 µM
TGI (A498 renal): > 73.5 µM
TGI (EKVX NSCLC): > 100 µM
TGI (HCC-2998 colon): 29.3 µM
TGI (MOLT-4 leukemia): 26.1 µM
TGI (HL-60(TB) leukemia): 64.8 µM
TGI (NCI-H23 lung): > 100 µM
TGI (SR leukemia): 28.3 µM
TGI (HS 578T breast): > 100 µM
TGI (CCRF-CEM leukemia): 45.6 µM
TGI (SN12C renal): > 100 µM
TGI (HOP-92 NSCLC): > 100 µM
TGI (TK-10 renal): > 100 µM
TGI (MCF7 breast): > 100 µM
TGI (SK-MEL-5 melanoma): > 74 µM
TGI (SF-539 CNS): > 100 µM
TGI (CAKI-1 renal): > 100 µM
TGI (KM12 colon): 84 µM
TGI (786-0 renal): > 100 µM
TGI (HT29 colon): > 100 µM
TGI (ACHN renal): > 100 µM
TGI (MDA-N): > 100 µM
TGI (LOX IMVI melanoma): > 100 µM
TGI (SF-295 CNS): > 100 µM
TGI (OVCAR-3 ovarian): > 68.1 µM
TGI (RPMI-8226 leukemia): > 87.6 µM
TGI (HCT-15 colon): > 100 µM
TGI (PC-3 prostate): > 100 µM
TGI (A549 NSCLC): > 100 µM
TGI (HCT-116 colon): > 100 µM
TGI (MDA-MB-231 breast): > 100 µM
TGI (NCI-H522 lung): 41.1 µM
TGI (SK-OV-3 ovarian): > 100 µM
TGI (SK-MEL-28 melanoma): 98.2 µM
TGI (HOP-62 NSCLC): > 93.3 µM
TGI (K-562 leukemia): > 100 µM
TGI (BT-549 breast): > 100 µM
TGI (MDA-MB-435): 8.93 µM
TGI (IGROV1 ovarian): > 100 µM
TGI (T-47D breast): 27.8 µM
TGI (UACC-257 melanoma): > 100 µM
TGI (RXF 393 renal): > 45.5 µM
TGI (SK-MEL-2 melanoma): > 77.6 µM
TGI (SNB-75 CNS): > 100 µM
TGI (OVCAR-4 ovarian): > 100 µM
